Experimental findings from paper PMC3927586, “Protein kinase C-delta inactivation inhibits the proliferation and survival of cancer stem cells in culture and in vivo” (BMC Cancer, 2014) are described below.

One experiment deals with MCF7 spheroids. As to the kind of experiment: Tumor spheroid formation, MCF7. It is filed as cell-based. As to conditions: Homo sapiens, 96 hr, read-out: inhibition of growth of MCF7 spheroids. The method, then:
Tumor self-renewing and anchorage-independent spheroids were obtained by culturing breast cancer cells MCF7, Hs587T and MDA231; melanoma cells SBcl2 and FM6; human breast cancer stem cells and pancreatic cancer stem cells in stem cell-selective conditions according to the manufacturer’s instructions (StemCell Technologies, Tukwila, WA). Briefly, cancer and cancer stem cells were propagated in 6-well ultra-low adherent plates (Corning) in Complete MammoCult Medium (Human) by adding 50 mL of MammoCult Proliferation Supplements to 450 mL of MammoCult Basal Medium (StemCell Technologies). The following were added to obtain Complete MammoCult Medium: 4 ug/mL Heparin (StemCell Technologies), 0.48 μg/mL hydrocortisone (StemCell Technologies), 200 U penicillin/ml; and 200 μg streptomycin/ml (Invitrogen).
Figure 4 Effects of PKCδ inhibitors on human tumor cell spheroid formation. […] Tumor spheroids and adherent cells were collected at 96 hr, stained for CD24 and CD44, and analyzed by flow cytometry. […] After 24, 48 and 72 hr of exposure, cell mass was evaluated by MTT assay. […] Viable cells were enumerated and re-plated in media without BJE6-206, and spheroid numbers were quantitated 96 hr later. p values for comparison between vehicle and BJE6-106 effects on spheroid number were significant after 6 hr of exposure (p≤0.02), and remained significant at all time points thereafter. […]

The test system of a further experiment is FN5. Briefly: Tumor spheroid growth, FN5 melanoma. The experiment is classed as cell-based, human. To be noted: p < 0.001.
A further experiment deals with PCSC cells. As to the kind of experiment: Cell proliferation (MTT) of pancreatic cancer stem cells. It is filed as cell-based, human. As to conditions: for IC50: Homo sapiens, read-out: IC50 (in culture), growth of PCSC; for IC50 / lowest concentration significantly inhibiting growth of PCSC cultures: 48 hr; for lowest concentration significantly inhibiting growth of PCSC cultures: p ≤ 0.02 vs vehicle. The method, then:
Cell proliferation was assessed using an MTT [3-(4,5-dimethylthiazol-2-yl)-2,5-diphenyltetrazolium bromide] assay (Roche, Mannheim, Germany). The number of viable cells growing in a single well on a 96-well microtiter plate was estimated by adding 10 μl of MTT solution (5 mg/ml in phosphate-buffered saline [PBS]). After 4 h of incubation at 37°C, the stain was diluted with 100 μl of dimethyl sulfoxide. The optical densities were quantified at a test wavelength of 570 nm and a reference wavelength of 690 nm on a multiwell spectrophotometer. In some assays, MTS was used as substrate (Promega, Madison, WI), and the absorbance of the product was monitored at 490 nm. Cell enumeration was carried out using a hemocytometer, and viable cells identified by trypan blue exclusion.
Figure 2 Effects of PKCδ inhibitors on human cancer stem cells. (A) PCSC and PrCSC cells at 80% confluence were exposed to rottlerin. DMSO served as vehicle control (Vehicle). After 24 and 72 hr of exposure, cell mass was evaluated by MTT assay. Control values were normalized to 100%. p values for comparison between treatments reached significance at 24 hr of exposure (p≤0.01) for both cell types, and remained significant at 72 hr. (B) PCSC and PrCSC cells at 50% confluence were exposed to rottlerin. Cytotoxicity was evaluated by LDH-release assay. Total maximal LDH release was assigned the arbitrary value of 100% (Control). p values for comparison between effects of treatments on LDH release reached significance at 24 hr of exposure (p<0.01) for both cell types, and remained significant at 72 hr. (C) Effects of PKCδ inhibitor on tumor cell clonogenic capacity. PCSC were exposed to vehicle or rottlerin (10 μM) for 6, 18, 24, or 48 hr. Viable cells were enumerated and re-plated in media without inhibitor, and colony numbers were quantitated 15 days later. p values for comparison of treatment effects on clonogenic capacity reached significance (p=0.005) at 18 hr of exposure and remained significant for all subsequent exposure times. The insert is a photograph of stained colonies on plates. (D) Structures of staurosporine, rottlerin, second-generation (KAM1) and third-generation (BJE6-106) derivatives. (E) PCSC and PrCSC cells at 50% confluence were exposed to KAM1 at the indicated concentrations. DMSO served as vehicle control (Vehicle). Cytotoxicity was evaluated by LDH-release assay, as in panel B. p values for comparison between treatment effects on LDH release reached significance at 24 hr of exposure to 2.5 μM KAM1 for PCSC cells and at 10 μM for PrCSC (p≤0.01), and remained significant at 72 hr for all concentrations of KAM1. Error bars represent SEM.
Figure 3 Effects of a 3rd generation small molecule PKCδ inhibitor on human pancreatic cancer stem cell cultures. PCSC cells were grown to 80% confluence in 96-well plates and then exposed to BJE6-106 at concentrations ranging from 0.1 to 20 μM, or to rottlerin at concentrations ranging from 1 to 20 μM. The corresponding equivalent volume of solvent (DMSO) was used as a vehicle control (Vehicle). After 48 and 72 hr of exposure, cell mass was evaluated by MTT assay. Control values were normalized to 100%. Error bars represent SEM. p values for comparison between vehicle and rottlerin effects on cell number at 48 hr reached significance at 1 μM, and for BJE6-106 at 0.1 μM (p ≤ 0.02), and remained significant at the 72 hr time point.

For the compound `CC(=O)c1c(O)c(C)c(O)c(Cc2c(O)c3c(c(C(=O)/C=C/c4ccccc4)c2O)OC(C)(C)C=C3)c1O` [rottlerin, Rottlerin, reference compound], the inhibition (as a rule, the share of the control response that was lost under treatment) at 10 µM in the experiment with MCF7 spheroids (rottlerin at 10 μM) is greater than 90%. Besides, the inhibition at 10 µM with FN5 (Homo sapiens, rottlerin at 10 μM) is greater than 99.5%. Also, in the experiment on PCSC cells (0.5 μM), the “growth-inhibitory activity on PCSC at 0.5 μM” value is given as “no significant inhibitory activity”. For the same compound, in the experiment with PCSC cells (MTT), the IC50 (commonly the midpoint of a concentration-inhibition curve) is roughly 3 µM and the “lowest concentration significantly inhibiting growth of PCSC cultures” value stood at 1 µM. The “effect on proliferation of PCSC” value with PCSC cells (MTT, as early as 24 hr after exposure) is given as “significant dose-dependent inhibition of proliferation”.
For the compound `CC1(C)C=Cc2cc(CCn3c4ccccc4c4ccccc43)cc(C=O)c2O1` [BJE6-106, 6-(2-(9H-carbazol-9-yl)ethyl)-2,2-dimethyl-2H-chromene-8-carbaldehyde], in the experiment with MCF7 spheroids (BJE6-106 at 1 μM), the inhibition at 1 µM is greater than 90%. For the same compound, in the experiment on FN5 (BJE6-106 at 0.5-1.0 μM), the “inhibition of tumor spheroid growth, FN5” value was greater than 99.5%. In addition, in the experiment on PCSC cells (MTT), the IC50 was roughly 0.5 µM and the “lowest concentration significantly inhibiting growth of PCSC cultures” value came to 0.1 µM.
